Measurements taken from patent US10758512B2 (KOREA INSTITUTE OF SCIENCE AND TECHNOLOGY, priority 2016, dated 2020).

Columns and labels:
[1] = test system: DU145 cells; assay: Cell viability of human prostate cell line (EZCytox); assay type: cell-based; details: 48 hours, relative to DMSO control (FIG. 4)
Method: With regard to the human prostate cancer cell line DU145 cultured and maintained in Experimental Example 1, the culture medium and prostate cell culture were mixed, and 1×10^4 cells were seeded in a 96-well plate, and then cultured for 24 hours under conditions of 5% carbon dioxide and 37° C.
After being stabilized, the cells were treated with only 0.2% dimethyl sulfoxide as a control group, treated with testosterone (100 ng/mL or 200 ng/mL) alone, or treated with testosterone and 10 μM finasteride as a positive control, or testosterone and 1 μM, 10 μM, or 20 μM fucoxanthin, and then cultured for 48 hours.
Thereafter, the media were collected for LC-MS/MS analysis, and then cell viability of prostate cells was measured in order to examine whether treatment of the compound influences growth of the prostate cells. The cell viability was determined by measuring absorbance at 450 nm after adding an EZCytox reagent (Daeil Lab Service, Korea) and culturing for 1-4 hours under conditions of 5% carbon dioxide and 37° C. The cell viability was calculated as a percentage relative to cell viability of the control group treated with dimethyl sulfoxide (DMSO) only.

[2] = test system: dihydrotestosterone production in prostate cell DU145; assay: Dihydrotestosterone production-inhibitory activity in prostate cells (LC-MS/MS); assay type: cell-based, human; details: 48 hours
Method: CWR-22Rv1, LNCaP, DU145, and PC-3 cells which are human prostate cancer cell lines were cultured and maintained in an RPMI medium (Roswell Park Memorial Institute medium) supplemented with 10% heat-inactivated fetal bovine serum (FBS), 10 U/mL penicillin, and 100 μg/mL streptomycin under conditions of 5% carbon dioxide and 37° C. The internal standard compound was dissolved in dimethyl sulfoxide at a concentration of 10 μM, and 1 μL thereof was added to 150 μL of cell culture, and treated to a cartridge to perform sample pretreatment. […] Thereafter, re-solvation was performed by using 50% aqueous methanol, and products were kept frozen at −20° C. Mass spectrometry of the stored samples was performed by using an AB SCIEX API 4000 QTRAP tandem quadrupole mass spectrometer. HPLC system used herein was Agilent 1200 pump, and solvent A was water/acetonitrile (95:5 v/v, 0.1% formic acid), and solvent B was acetonitrile/water (95:5 v/v, 0.1% formic acid). For chromatography separation, a linear gradient from 40% B solvent to 100% B solvent in 8 minutes was used. An analysis column used herein was an XTerra MS C18 column (2.1 mm×150 mm, 3.5 μm) of Waters corporation, and analysis was performed while maintaining temperature at 25° C. and a flow rate of 0.2 mL/min. […]

Row | SMILES | cell viability of prostate cells ([1]; DU145, testosterone plus finasteride 10 μM) | dihydrotestosterone production ([2]; DU145, testosterone 100 ng/mL plus finasteride 10 μM, vs testosterone alone (FIG. 3)) | cell viability of prostate cells ([1]; DU145, testosterone plus fucoxanthin 1 μM, 10 μM or 20 μM) | dihydrotestosterone production ([2]; DU145, testosterone 100 ng/mL plus fucoxanthin 1 μM, 10 μM, 20 μM, vs testosterone alone, inhibition increased with concentration (FIG. 3))
1 | CC(C)(C)NC(=O)[C@H]1CC[C@H]2[C@@H]3CC[C@H]4NC(=O)C=C[C@]4(C)[C@H]3CC[C@]12C [finasteride] | did not influence cell viability | remarkably inhibited | – | –
2 | CC(=O)O[C@H]1CC(C)(C)C(=C=C/C(C)=C/C=C/C(C)=C/C=C/C=C(C)/C=C/C=C(\C)C(=O)C[C@@]23O[C@]2(C)C[C@@H](O)CC3(C)C)[C@](C)(O)C1 [fucoxanthin] | – | – | did not influence cell viability | remarkably inhibited
